Results on three molecules are retold here after EP4786483A1, “AURISTATIN DERIVATIVE AND ANTIBODY-DRUG CONJUGATE THEREOF” (priority 2023, dated 2025).

Structures are written as SMILES.

Assay type in all cases: cell-based
Test [1] deals with human breast cancer cells MDA-MB-468. Put plainly: Cytotoxicity test for compounds (CellTiter-Glo cell proliferation inhibition). Conditions: Homo sapiens, MDA-MB-468, 72 h, 3 days of incubation; CellTiter-Glo; read-out: MDA-MD-468/IC50. How it is done: (§1) Biological Test Example 1: Cytotoxicity Test for Compounds
(§2) • 96-well clear flat-bottom white plate (Corning, #3610) • RPMI1640 culture medium (Gibco, #A10491-01) • Fetal Bovine Serum (Sigma-Aldrich, #F8687-500ML) • CellTiter-Glo® Luminescent Cell Viability Assay (Promega, # G7572/G7571)
(§3) Human gastric cancer cells NCI-N87 (ATCC, Cat. No.: CRL-5822), human breast cancer cells MDA-MB-468 (Cell Bank of the Committee for Type Culture Collection of the Chinese Academy of Sciences, Cat. No.: TCHu136), and human breast cancer cells KPL-4 (Nanjing Cobioer Biosciences Co., Ltd., Cat. No.: CBP60379) were washed with PBS and digested with 0.25% Trypsin-EDTA trypsin for about 3-10 min. The digestion was terminated with a complete cell culture medium. The cells were centrifuged at 1000 rpm for 5 min, and the supernatant was discarded. The cells were resuspended in a complete cell culture medium. The cell number was counted using a cell counter, and the cells were adjusted to the desired density. 90.0 µL of the cell suspension was added to each well at 3000 cells/well. The cell plate was incubated in a cell incubator at 37°C with 5% CO2 overnight.
(§4) In the experiment, a DMSO control group and test sample groups were set. The cell plate was removed from the incubator to observe cell adherence. After the cells adhered, 10.00 µL of the sample (starting from a final concentration of 10 µM, 5-fold dilution, 9 concentrations) was added to each well. After the mixture was gently shaken uniformly, the plate was incubated in the incubator.
(§5) After 3 days of incubation, 100.0 µL/well of CellTiter-Glo™ (Promega, Cat. No.: G7572/G7571) working solution was added. The plate was shaken on a thermostatic shaker to lyse the cells. After 10 min, the plate was read on a microplate reader.
(§6) Data analysis: GraphPad Prism 8.0 software was used to plot a graph with the Log value of the sample concentration as the abscissa and the Inhibition% as the ordinate. The data were analyzed by Nonlinear regression (curve fit) to obtain the IC50 value of each test sample. Table 1. Inhibition activity of compounds of the present disclosure on cell proliferation
(In general: Cellular ATP, detected with luciferase, serves as a proxy for viable cell number.)

In test [2] the test system is human breast cancer cells KPL-4. Described as above. Conditions: Homo sapiens, KPL4, 72 h; 3 days of incubation; CellTiter-Glo; read-out: KPL-4/IC50. How it is done:
as §1, §2, §3, §4, §5, §6

For test [3], the system named is Human gastric cancer cells NCI-N87. Described as above. Conditions: Homo sapiens, NCI-N87, 72 h, 3 days of incubation; CellTiter-Glo; read-out: NCI-87/IC50. On the procedure:
as §1, §2, §3, §4, §5, §6

Test [4] relates to CD34^+ hematopoietic stem/progenitor cells. Nature of the test: Hematologic toxicity of compounds (CD34+ HSC viability, CTG). As to conditions: 240 h; cytotoxic drugs; treatment for 10 days; CTG cell viability. On the procedure:
Experimental objective: The effects of cytotoxic drugs on the differentiation and development of CD34^+ hematopoietic stem/progenitor cells into the megakaryocytic lineage were investigated, so as to evaluate their potential hematologic toxicity of causing thrombocytopenia.
Experimental design: After resuscitation, bone marrow-mobilized peripheral blood-derived HSCs were seeded at 2000 cells/well/180 µL in an ultra-low attachment 96-well round-bottom plate and stabilized for 4 h. The cells were treated with compounds by performing a 5-fold gradient dilution starting from the highest dose of 1 µM, resulting in a total of 9 concentration points, and this treatment was maintained continuously for 10 days. Cell viability was detected using the CTG reagent (CellTiter-Glo luminescent cell viability detection kit, manufacturer: Promega, Cat. No.: G7571). Table 2. Hematologic toxicity test results of cytotoxic drugs

On to `C#CCN(CCc1cccc(N)c1)C(=O)[C@H](C)[C@@H](OC)[C@@H]1CCCN1C(=O)C[C@@H](OC)[C@H]([C@@H](C)CC)N(C)C(=O)[C@@H](NC(=O)[C@H](C(C)C)N(C)C)C(C)C` [Example 6, (S)-N-((3R,4S,5S)-1-((S)-2-((1R,2R)-3-((3-aminophenethyl)(prop-2-yn-1-yl)amino)-1-methoxy-2-methyl-3-oxopropyl)pyrrolidin-1-yl)-3-methoxy-5-methyl-1-oxoheptan-4-yl)-2-((S)-2-(dimethylamino)-3-methylbutanamido)-N,3-dimethylbutanamide], for which the IC50 amounted to 12.6 nM in test [1], 2.96 nM in test [2], 3.93 nM in test [3] and 3.96 nM in test [4].

For the molecule `CC[C@H](C)[C@@H]([C@@H](CC(=O)N1CCC[C@H]1[C@H](OC)[C@@H](C)C(=O)N(CC#N)CCc1cccc(N)c1)OC)N(C)C(=O)[C@@H](NC(=O)[C@H](C(C)C)N(C)C)C(C)C` [Example 45, (S)-N-((3R,4S,5S)-1-((S)-2-((1R,2R)-3-((3-aminophenethyl)(cyanomethyl)amino)-1-methoxy-2-methyl-3-oxopropyl)pyrrolidin-1-yl)-3-methoxy-5-methyl-1-oxoheptan-4-yl)-2-((S)-2-(dimethylamino)-3-methylbutanamido)-N,3-dimethylbutanamide], the IC50 in test [2] worked out at 0.65 nM; in test [3] it was 2.21 nM; in test [4] it was 0.235 nM.

Regarding `CC[C@H](C)[C@@H]([C@@H](CC(=O)N1CCC[C@H]1[C@H](OC)[C@@H](C)C(=O)N(CCc1cccc(N)c1)OC)OC)N(C)C(=O)[C@@H](NC(=O)[C@H](C(C)C)N(C)C)C(C)C` [Example 7, (S)-N-((3R,4S,5S)-1-((S)-2-((1R,2R)-3-((3-aminophenethyl)(methoxy)amino)-1-methoxy-2-methyl-3-oxopropyl)pyrrolidin-1-yl)-3-methoxy-5-methyl-1-oxoheptan-4-yl)-2-((S)-2-(dimethylamino)-3-methylbutanamido)-N,3-dimethylbutanamide], the IC50 is 13.4 nM in test [1], 0.45 nM in test [2], 0.89 nM in test [3] and 0.144 nM in test [4].
